Experimental data published in patent US12528790B2, “Amide derivative having antiviral activity” (Shionogi & Co., Ltd., priority 2020, dated 2026).

test system: RSV A2 strain; test: In vitro CPE (CytoPathic Effect) inhibition effect evaluation test, RSV type A; type: cell-based; conditions: human respiratory syncytial virus, HEp-2
Outline: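 HEp-2 cells (2.4×10^5 cells/mL, 2% FBS E-MEM) were infected with RSV alongside 3-fold compound dilutions and incubated at 37 °C, 4 days for A2 and 5 days for B Wash/18537. Viable cells quantified by CellTiter-Glo 2.0 luminescence; EC50 by nonlinear regression as 50% CPE inhibition.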

Row | Compound | EC50
1 | NC(=O)C1(NC(=O)c2cnc(N3CC4(CCNCC4)c4cc(OCCC5CCOCC5)ccc43)nc2C(F)(F)F)C2CC3CC(C2)CC1C3 (stereo not shown) [Compound I-171] | 10 to 100 nM
2 | Cc1ccc2c(c1)C1(CCN(C3COC3)CC1)CN2c1ncc(C(=O)NC2(C(N)=O)C3CC4CC(C3)CC2C4)c(C(F)(F)F)n1 (stereo not shown) [Compound I-181] | 10 to 100 nM
3 | O=C(NC1(C(=O)O)C2CC3CC(C2)CC1C3)c1cnc(N2CC3(CCOCC3)c3cc(O[C@@H]4C[C@H]5CC[C@@H](C4)N5)ccc32)nc1C(F)(F)F (stereo partly shown) [Compound I-212] | 100 to 5000 nM

same assay, conditions: human respiratory syncytial virus; inhibitory effect against RSV type A (RSV A2 strain), HEp-2 cells, CPE inhibition; read-out: EC50

Row | Compound | EC50
4 | CCNC(=O)N1CCC2(CC1)CN(c1ncc(C(=O)NC3(C(=O)O)C4CC5CC(C4)CC3C5)c(C(F)(F)F)n1)c1ccc(C)cc12 (stereo not shown) [Compound I-138] | < 10 nM
5 | Cc1ccc2c(c1)C1(CCN(c3ncccn3)CC1)CN2c1ncc(C(=O)NC2(C(=O)O)C3CC4CC(C3)CC2C4)c(C(F)(F)F)n1 (stereo not shown) [Compound I-139] | < 10 nM
6 | CC(C)(C)OC(=O)N1CCC(NC(=O)c2cnc(N3CC4(CCOCC4)c4cc(OC5CCN(c6ncccn6)CC5)ccc43)nc2C(F)(F)F)(C(=O)O)CC1 [Compound I-140] | 10 to 100 nM
7 | O=C(NC1(C(=O)O)C2CC3CC(C2)CC1C3)c1cnc(-n2c3ccccc3c3cc(OCCC4CCOCC4)ccc32)nc1C(F)(F)F (stereo not shown) [Compound I-141] | < 10 nM
8 | O=C(NC1(C(=O)O)C2CC3CC(C2)CC1C3)c1cnc(N2CC3(CCOCC3)c3cc(OC4CCC(n5cccn5)CC4)ccc32)nc1C(F)(F)F (stereo not shown) [Compound I-143] | < 10 nM
9 | O=C(NC1(C(=O)O)CCNCC1)c1cnc(N2CC3(CCOCC3)c3cc(OC4CCN(c5ncccn5)CC4)ccc32)nc1C(F)(F)F [Compound I-144] | 100 to 5000 nM
10 | COC(=O)N1CCC(NC(=O)c2cnc(N3CC4(CCOCC4)c4cc(OC5CCN(c6ncccn6)CC5)ccc43)nc2C(F)(F)F)(C(=O)O)CC1 [Compound I-145] | 10 to 100 nM
11 | O=C(NC1(C(=O)O)C2CC3CC(C2)CC1C3)c1ccc(-c2cn(CC(=O)N3CCOCC3)c3cc(OC4CCN(c5ncccn5)CC4)ccc23)nc1C(F)(F)F (stereo not shown) [Compound I-149] | < 10 nM
12 | O=C(NC1(C(=O)O)C2CC3CC(C2)CC1C3)c1ccc(-c2cn(C(=O)OC3CCCCC3)c3cc(OC4CCN(c5ncccn5)CC4)ccc23)nc1C(F)(F)F (stereo not shown) [Compound I-150] | < 10 nM
13 | O=C(NC1(C(=O)O)C2CC3CC(C2)CC1C3)c1ccc(-c2cn(CC3CC3)c3cc(OC4CCN(c5ncccn5)CC4)ccc23)nc1C(F)(F)F (stereo not shown) [Compound I-153] | < 10 nM
14 | O=C(NC1(C(=O)O)C2CC3CC(C2)CC1C3)c1ccc(-c2cn(C3CCC3)c3cc(OC4CCN(c5ncccn5)CC4)ccc23)nc1C(F)(F)F (stereo not shown) [Compound I-154] | < 10 nM
15 | NC(=O)c1cc(C(=O)NC2(C(=O)O)C3CC4CC(C3)CC2C4)c(C(F)(F)F)nc1N1CCc2cc(OCCC3CCOCC3)ccc21 (stereo not shown) [Compound I-156] | 100 to 5000 nM
16 | O=C(NC1(C(=O)O)C2CC3CC(C2)CC1C3)c1cnc(N2CCc3cc(OCCC4CCOCC4)ccc32)nc1C(F)F (stereo not shown) [Compound I-157] | < 10 nM
17 | CC(F)(F)c1nc(N2CCc3cc(OCCC4CCOCC4)ccc32)ncc1C(=O)NC1(C(=O)O)C2CC3CC(C2)CC1C3 (stereo not shown) [Compound I-161] | < 10 nM
18 | O=C(N[C@@]1(C(=O)O)[C@@H]2C[C@@H]3C[C@H]1C[C@@](F)(C3)C2)c1cnc(N2CCc3cc(OCCC4CCOCC4)ccc32)nc1C(F)(F)F [Compound I-163] | < 10 nM
19 | O=C(N[C@@]1(C(=O)O)[C@@H]2C[C@@H]3C[C@H]1C[C@@](F)(C3)C2)c1cnc(N2CC3(CCOCC3)c3cc(OC4CCN(c5ncccn5)CC4)ccc32)nc1C(F)(F)F [Compound I-164] | < 10 nM
20 | NC(=O)[C@@]1(NC(=O)c2cnc(N3CC4(CCOCC4)c4cc(OC5CCN(c6ncccn6)CC5)ccc43)nc2C(F)(F)F)[C@@H]2CC3C[C@H]1C[C@@](F)(C3)C2 [Compound I-166] | < 10 nM
21 | NCCc1nc(N2CCc3cc(OCCC4CCOCC4)ccc32)nc(C(F)(F)F)c1C(=O)NC1(C(=O)O)C2CC3CC(C2)CC1C3 (stereo not shown) [Compound I-167] | 100 to 5000 nM
22 | CN(C)CCc1nc(N2CC3(CCOCC3)c3cc(OC4CCN(c5ncccn5)CC4)ccc32)nc(C(F)(F)F)c1C(=O)NC1(C(=O)O)C2CC3CC(C2)CC1C3 (stereo not shown) [Compound I-168] | < 10 nM
23 | NC(=O)C1(NC(=O)c2ccc(N3CC4(CCOCC4)c4cc(OC5CCN(c6ncccn6)CC5)ccc43)nc2C(F)(F)F)C2CC3CC(C2)CC1C3 (stereo not shown) [Compound I-169] | < 10 nM
24 | NC(=O)C1(NC(=O)c2cnc(N3CC4(CCOCC4)c4cc(OCCN5CCOCC5)ccc43)nc2C(F)(F)F)C2CC3CC(C2)CC1C3 (stereo not shown) [Compound I-170] | < 10 nM
25 | Cc1ccc2c(c1)C1(CCNCC1)CN2c1ncc(C(=O)NC2(C(N)=O)C3CC4CC(C3)CC2C4)c(C(F)(F)F)n1 (stereo not shown) [Compound I-172] | 100 to 5000 nM
26 | CNC(=O)C1(NC(=O)c2cnc(N3CC4(CCOCC4)c4cc(OC5CCN(c6ncccn6)CC5)ccc43)nc2C(F)(F)F)C2CC3CC(C2)CC1C3 (stereo not shown) [Compound I-173] | 10 to 100 nM
27 | CN(C)C(=O)C1(NC(=O)c2cnc(N3CC4(CCOCC4)c4cc(OC5CCN(c6ncccn6)CC5)ccc43)nc2C(F)(F)F)C2CC3CC(C2)CC1C3 (stereo not shown) [Compound I-174] | < 10 nM
28 | CCC(F)(F)c1nc(N2CCc3cc(OCCC4CCOCC4)ccc32)ncc1C(=O)NC1(C(=O)O)C2CC3CC(C2)CC1C3 (stereo not shown) [Compound I-178] | 10 to 100 nM

Row | Compound | EC50
29 | CC(C)(F)c1nc(N2CCc3cc(OCCC4CCOCC4)ccc32)ncc1C(=O)NC1(C(=O)O)C2CC3CC(C2)CC1C3 (stereo not shown) [Compound I-179] | < 10 nM
30 | O=C(NC1(C(=O)O)C2CC3CC(C2)CC1C3)c1cnc(N2CCc3cc(OCCC4CCOCC4)ccc32)nc1C(F)(F)C(F)(F)F (stereo not shown) [Compound I-180] | < 10 nM
31 | N#C[C@H]1CC[C@H](n2cc(-c3ccc(C(=O)NC4(C(=O)O)C5CC6CC(C5)CC4C6)c(C(F)(F)F)n3)c3ccc(OC4CCN(c5ncccn5)CC4)cc32)CC1 (stereo partly shown) [Compound I-185] | < 10 nM
32 | N#C[C@H]1CC[C@@H](n2cc(-c3ccc(C(=O)NC4(C(=O)O)C5CC6CC(C5)CC4C6)c(C(F)(F)F)n3)c3ccc(OC4CCN(c5ncccn5)CC4)cc32)CC1 (stereo partly shown) [Compound I-186] | < 10 nM
33 | COc1ccc2c(c1)C1(CCOCC1)CN2c1nc(CCCO)c(C(=O)NC2(C(=O)O)C3CC4CC(C3)CC2C4)c(C(F)(F)F)n1 (stereo not shown) [Compound I-187] | 10 to 100 nM
34 | O=C(NC1(C(=O)O)C2CC3CC(C2)CC1C3)c1ccc(-c2cn([C@H]3CC[C@@H](OCc4ccccc4)CC3)c3cc(OC4CCN(c5ncccn5)CC4)ccc23)nc1C(F)(F)F (stereo partly shown) [Compound I-188] | < 10 nM
35 | O=C(NC1(C(=O)O)C2CC3CC(C2)CC1C3)c1cnc(N2CC3(CCOCC3)c3cc(O[C@H]4CC[C@@H](n5cccn5)CC4)ccc32)nc1C(F)(F)F (stereo partly shown) [Compound I-192] | < 10 nM
36 | O=C(NC1(C(=O)O)C2CC3CC(C2)CC1C3)c1ccc(-c2cn([C@H]3CC[C@@H](O)CC3)c3cc(OC4CCN(c5ncccn5)CC4)ccc23)nc1C(F)(F)F (stereo partly shown) [Compound I-194] | < 10 nM
37 | O=C(NC1(C(=O)O)C2CC3CC(C2)CC1C3)c1ccc(-c2cn([C@H]3CC[C@H](O)CC3)c3cc(OC4CCN(c5ncccn5)CC4)ccc23)nc1C(F)(F)F (stereo partly shown) [Compound I-195] | < 10 nM
38 | O=C(NC1(C(=O)O)C2CC3CC(C2)CC1C3)c1ccc(-c2cn(-c3cncnc3)c3cc(OC4CCN(c5ncccn5)CC4)ccc23)nc1C(F)(F)F (stereo not shown) [Compound I-196] | < 10 nM
39 | O=C(NC1(C(=O)O)C2CC3CC(C2)CC1C3)c1ccc(-c2cn(-c3ccncn3)c3cc(OC4CCN(c5ncccn5)CC4)ccc23)nc1C(F)(F)F (stereo not shown) [Compound I-197] | < 10 nM
40 | O=C(NC1(C(=O)O)C2CC3CC(C2)CC1C3)c1ccc(-c2cn(-c3cnccn3)c3cc(OC4CCN(c5ncccn5)CC4)ccc23)nc1C(F)(F)F (stereo not shown) [Compound I-198] | < 10 nM
41 | O=C(NC1(C(=O)O)C2CC3CC(C2)CC1C3)c1ccc(-c2cn(CCO)c3cc(OC4CCN(c5ncccn5)CC4)ccc23)nc1C(F)(F)F (stereo not shown) [Compound I-200] | < 10 nM
42 | O=C(NC1(C(=O)O)C2CC3CC(C2)CC1C3)c1cnc(N2CC3(CCOCC3)c3cc(O)ccc32)nc1C(F)(F)F (stereo not shown) [Compound I-201] | 10 to 100 nM
43 | O=C(NC1(C(=O)O)C2CC3CC(C2)CC1C3)c1cnc(N2CC3(CCOCC3)c3cc(OC4CCN(c5ncccn5)CC4)ccc32)nc1C(F)(F)CO (stereo not shown) [Compound I-205] | < 10 nM
44 | Cn1ccnc1N1CCC(Oc2ccc3c(c2)CCN3c2ncc(C(=O)NC3(C(=O)O)CCCCC3)c(C(F)(F)F)n2)CC1 [Compound I-207] | 10 to 100 nM
45 | O=C(O)/C=C/C1(NC(=O)c2cnc(N3CC4(CCOCC4)c4cc(OC5CCN(c6ncccn6)CC5)ccc43)nc2C(F)(F)F)C2CC3CC(C2)CC1C3 (stereo not shown) [Compound I-208] | < 10 nM
46 | CC(C)N1CCC(Oc2ccc3c(c2)C2(CCOCC2)CN3c2ncc(C(=O)NC3(C(=O)O)C4CC5CC(C4)CC3C5)c(C(F)(F)F)n2)CC1 (stereo not shown) [Compound I-209] | < 10 nM
47 | O=C(NC1(C(=O)O)C2CC3CC(C2)CC1C3)c1cnc(N2CCc3cc(CN4CCN(c5ncccn5)CC4)ccc32)nc1C(F)(F)F (stereo not shown) [Compound I-213] | < 10 nM
48 | N#C[C@]12C[C@@H]3C[C@H](C1)[C@@](NC(=O)c1cnc(N4CC5(CCOCC5)c5cc(OC6CCN(c7ncccn7)CC6)ccc54)nc1C(F)(F)F)(C(=O)O)[C@@H](C3)C2 [Compound I-219] | < 10 nM
49 | O=C(NC1(C(=O)O)C2CC3CC(C2)CC1C3)c1cnc(N2CCc3cc(OC4CCN(C5COC5)CC4)ccc32)nc1C(F)(F)F (stereo not shown) [Compound I-220] | < 10 nM
50 | O=C(NC1(C(=O)O)C2CC3CC(C2)CC1C3)c1ccc(-c2cn(C3CCOCC3)c3cc(OC4CCN(c5ncccn5)CC4)c(F)cc23)nc1C(F)(F)F (stereo not shown) [Compound I-222] | < 10 nM
51 | O=C(NC1(C(=O)O)C2CC3CC(C2)CC1C3)c1cnc(N2CC3(CCOCC3)c3cc(OC4CN(C(=O)OCc5ccccc5)C4)ccc32)nc1C(F)(F)F (stereo not shown) [Compound I-224] | < 10 nM
52 | O=C(NC1(C(=O)O)C2CC3CC(C2)CC1C3)c1cnc(-c2cn(C3CCC(F)(F)CC3)c3ccc(OC4CCN(C5COC5)CC4)cc23)nc1C(F)(F)F (stereo not shown) [Compound I-225] | 10 to 100 nM
